Data published in patent US20230143345A1, “PHARMACEUTICAL COMPOSITION FOR PREVENTION OR TREATMENT OF DISEASES CAUSED BY SARS-COV-2” (DONG WHA PHARM. CO., LTD., priority 2020, published 2023).
Where “and” joins values, the source holds several entries; their conditions need not be identical. Equal values may be shown once. Read-outs that look alike come from different tables or passages of the source.

Tests used:
[1] = test system: SARS-CoV-2; assay: microbe, parasite or virus in culture; format: cell-based
[2] = test system: SARS-CoV-2; assay: microbe, parasite or virus in culture; format: cell-based; settings: VERO cells infected at MOI 0.1 for one hour, then drug, culture fluid after 48 hours, qRT-PCR
[3] = test system: Vero cell lines; assay: Cell viability of Vero cells in the SARS-CoV-2 inhibition experiment (Example 2)
[4] = test system: VERO cells; assay: Cell viability of VERO cells by WST-1 assay (Example 3); settings: read-out: 50% cell viability inhibitory concentration (CC50 value); VERO cells, WST-1 assay
[5] = as above; settings: African green monkey
[6] = read-out: SARS-CoV-2 virus 50% inhibitory ability (IC50 value)

Compound: Cc1cccc(C)c1OCC(=O)N[C@@H](Cc1ccccc1)[C@@H](O)C[C@H](Cc1ccccc1)NC(=O)[C@H](C(C)C)N1CCCNC1=O [Lopinavir]
- inhibition at 25 µM ([1]; Severe acute respiratory syndrome coronavirus 2, Vero, 24 h, concentration 25 uM, Vero cells, 24 h, read-out: SARS-CoV-2 virus inhibitory ability (%, average ± standard deviation)): 99.01 ± 0.02%
- inhibition at 50 µM ([1]; Severe acute respiratory syndrome coronavirus 2, Vero, 24 h, concentration 50 uM, Vero cells, 24 h, read-out: SARS-CoV-2 virus inhibitory ability (%, average ± standard deviation)): 98.2 ± 2.11%
- IC50 ([1]; Severe acute respiratory syndrome coronavirus 2, Vero, 24 h, read-out: SARS-CoV-2 virus 50% inhibitory ability (IC50 value), Vero cells dosed while being infected, 24 h, compounds): 12.6 µM
- SARS-CoV-2 virus inhibitory ability (%, average ± standard deviation) ([1]; concentration 0.10 uM, Vero cells, 24 h, 0.1 µM): 3.14 ± 0.24% and −0.2 ± 4.23%
- SARS-CoV-2 virus inhibitory ability (%, average ± standard deviation) ([1]; concentration 0.20 uM, Vero cells, 24 h, 0.2 µM): 0.2 ± 2.44%
- SARS-CoV-2 virus inhibitory ability (%, average ± standard deviation) ([1]; concentration 0.39 uM, Vero cells, 24 h, 0.39 µM): −0.60 ± 2.75% and 1.2 ± 5.71%
- SARS-CoV-2 virus inhibitory ability (%, average ± standard deviation) ([1]; concentration 1.56 uM, Vero cells, 24 h, 1.56 µM): 0.79 ± 3.76% and 1.7 ± 0.27%
- SARS-CoV-2 virus inhibitory ability (%, average ± standard deviation) ([1]; concentration 3.13 uM, Vero cells, 24 h, 3.13 µM): 3.03 ± 0.67% and 0.2 ± 6.78%
- SARS-CoV-2 virus inhibitory ability (%, average ± standard deviation) ([1]; concentration 6.25 uM, Vero cells, 24 h, 6.25 µM): 3.38 ± 5.94% and −0.1 ± 1.27%
- SARS-CoV-2 virus inhibitory ability (%, average ± standard deviation) ([1]; concentration 25 uM, Vero cells, 24 h, 25 µM): 98.6 ± 0.28%
- SARS-CoV-2 virus inhibitory ability (%, average ± standard deviation) ([1]; concentration 50 uM, Vero cells, 24 h, 50 µM): 99.6 ± 0.57%
- IC50 ([1]; read-out: SARS-CoV-2 virus 50% inhibitory ability (IC50 value), Vero cells dosed while being infected, 24 h, compounds): 14.5 µM

Compound: COc1cc2cc3c(c(-c4ccc5c(c4)OCO5)c2cc1OC)C(=O)OC3 [Justicidin-B, 9-benzo[1,3]dioxol-5-yl-6,7-dimethoxy-3H-naphtho[2,3-c]furanone]
- SARS-CoV-2 inhibitory ability (in words) ([1]; Vero cells, comparison at IC50 values with Remdesivir, Lopinavir and Chloroquine): remarkably more excellent
- SARS-CoV-2 virus inhibitory ability (%, average ± standard deviation) ([1]; concentration 0.10 uM, Vero cells, 24 h): 13.37 ± 6.72%
- SARS-CoV-2 virus inhibitory ability (%, average ± standard deviation) ([1]; concentration 0.20 uM, Vero cells, 24 h): 48.73 ± 2.82%
- SARS-CoV-2 virus inhibitory ability (%, average ± standard deviation) ([1]; concentration 0.39 uM, Vero cells, 24 h): 88.06 ± 0.59%
- SARS-CoV-2 virus inhibitory ability (%, average ± standard deviation) ([1]; concentration 1.56 uM, Vero cells, 24 h): 99.61 ± 0.65%
- SARS-CoV-2 virus inhibitory ability (%, average ± standard deviation) ([1]; concentration 3.13 uM, Vero cells, 24 h): 100.03 ± 0.27%
- SARS-CoV-2 virus inhibitory ability (%, average ± standard deviation) ([1]; concentration 12.5 uM, Vero cells, 24 h): 100.01 ± 0.14%
- SARS-CoV-2 virus inhibitory ability (%, average ± standard deviation) ([1]; concentration 25 uM, Vero cells, 24 h): 100.00 ± 0.21%
- SARS-CoV-2 virus inhibitory ability (%, average ± standard deviation) ([1]; concentration 50 uM, Vero cells, 24 h): 100.28 ± 0.49%
- IC50 [1, 6]: 0.203 µM
- IC50 [2, 6]: 0.17 µM
- Cell viability (%, average ± standard deviation) ([3]; concentration 0.10 uM): 107.08 ± 1.75%
- Cell viability (%, average ± standard deviation) ([3]; concentration 0.20 uM): 110.62 ± 0.00%
- Cell viability (%, average ± standard deviation) ([3]; concentration 0.39 uM): 107.70 ± 4.88%
- Cell viability (%, average ± standard deviation) ([3]; concentration 1.56 uM): 102.83 ± 5.24%
- Cell viability (%, average ± standard deviation) ([3]; concentration 3.13 uM): 98.69 ± 5.68%
- Cell viability (%, average ± standard deviation) ([3]; concentration 6.25 uM): 94.60 ± 3.46%
- Cell viability (%, average ± standard deviation) ([3]; concentration 12.5 uM): 90.01 ± 1.60%
- Cell viability (%, average ± standard deviation) ([3]; concentration 25 uM): 83.49 ± 1.22%
- Cell viability (%, average ± standard deviation) ([3]; concentration 50 uM): 78.67 ± 2.53%
- CC50 [4]: > 800 µM

Compound: CCN(CCO)CCCC(C)Nc1ccnc2cc(Cl)ccc12 (centres unmarked) [Hydroxy-chloroquine, reference compound]
- IC50 ([2]; Severe acute respiratory syndrome coronavirus 2, read-out: SARS-CoV-2 virus 50% inhibitory ability (IC50 value)): 9.33 µM
- CC50 at 48 h [5]: 160 µM
